Measurements from ChEMBL document CHEMBL4321812, “Structure-based rational design of staurosporine-based fluorescent probe with broad-ranging kinase affinity for kinase panel application” (Bioorg Med Chem Lett, 2019).

Key:
[1] = molecular target: Protein kinase C theta type (Homo sapiens, UniProt Q04759); test: Binding affinity to recombinant full-length N-terminal His-GST-tagged PRKCQ (unknown origin) expressed in baculovirus infected Sf9 insect cells incubated for 1 hr by TR-FRET assay
[2] = molecular target: Epithelial discoidin domain-containing receptor 1 (Homo sapiens, UniProt Q08345); test: Binding affinity to recombinant N-terminal His-FLAG-GST-tagged DDR1 (unknown origin) (444 to 876 residues) expressed in baculovirus infected Sf9 insect cells incubated for 1 hr by TR-FRET assay
Epithelial discoidin domain-containing receptor 1, sequence (Q08345 whole entry, the tested form may be a part): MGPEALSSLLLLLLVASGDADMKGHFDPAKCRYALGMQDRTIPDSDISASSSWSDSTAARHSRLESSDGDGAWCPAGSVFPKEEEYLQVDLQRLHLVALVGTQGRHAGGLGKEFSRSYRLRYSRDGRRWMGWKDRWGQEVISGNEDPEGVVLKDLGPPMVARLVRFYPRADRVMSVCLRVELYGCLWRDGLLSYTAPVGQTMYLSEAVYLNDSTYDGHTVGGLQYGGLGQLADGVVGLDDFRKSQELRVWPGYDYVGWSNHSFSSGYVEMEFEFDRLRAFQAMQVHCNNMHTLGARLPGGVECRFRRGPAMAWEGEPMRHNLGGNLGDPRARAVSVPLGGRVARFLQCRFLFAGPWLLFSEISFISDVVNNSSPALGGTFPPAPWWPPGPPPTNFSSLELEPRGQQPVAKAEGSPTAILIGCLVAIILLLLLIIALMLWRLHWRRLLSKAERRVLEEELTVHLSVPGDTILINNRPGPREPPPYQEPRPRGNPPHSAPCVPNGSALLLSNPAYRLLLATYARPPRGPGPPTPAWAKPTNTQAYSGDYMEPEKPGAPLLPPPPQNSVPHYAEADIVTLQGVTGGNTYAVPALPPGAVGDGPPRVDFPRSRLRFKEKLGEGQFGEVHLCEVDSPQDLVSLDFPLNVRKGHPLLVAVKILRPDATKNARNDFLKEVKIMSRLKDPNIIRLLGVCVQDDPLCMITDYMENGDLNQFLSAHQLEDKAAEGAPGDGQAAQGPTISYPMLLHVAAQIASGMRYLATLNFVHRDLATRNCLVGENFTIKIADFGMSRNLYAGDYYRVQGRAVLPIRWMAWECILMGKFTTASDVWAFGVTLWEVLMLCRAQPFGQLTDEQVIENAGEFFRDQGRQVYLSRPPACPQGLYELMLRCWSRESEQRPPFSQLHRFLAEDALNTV

[3] = molecular target: Serine/threonine-protein kinase SIK1 (Homo sapiens, UniProt P57059); test: Binding affinity to recombinant full-length N-terminal His-FLAG-tagged SIK1 (unknown origin) expressed in baculovirus infected Sf9 insect cells incubated for 1 hr by TR-FRET assay
[4] = molecular target: Tyrosine-protein kinase CSK (Homo sapiens, UniProt P41240); test: Binding affinity to recombinant full-length N-terminal His-FLAG-tagged CSK (unknown origin) expressed in baculovirus infected Sf9 insect cells incubated for 1 hr by TR-FRET assay
Ephrin type-A receptor 7 = Ephrin type-A receptor 7 (Homo sapiens, UniProt Q15375); test: Binding affinity to recombinant N-terminal His-FLAG-GST-tagged EPHA7 (unknown origin) ( 595 to 998 residues) expressed in baculovirus infected Sf9 insect cells incubated for 1 hr by TR-FRET assay
[5] = molecular target: Serine/threonine-protein kinase ULK3 (Homo sapiens, UniProt Q6PHR2); test: Binding affinity to recombinant full-length N-terminal His-FLAG-GST-tagged ULK3 (unknown origin) expressed in baculovirus infected Sf9 insect cells incubated for 1 hr by TR-FRET assay
[6] = molecular target: Mitogen-activated protein kinase 12 (Homo sapiens, UniProt P53778); test: Binding affinity to recombinant full-length N-terminal His-FLAG-GST-tagged MAPK12 (unknown origin) expressed in baculovirus infected Sf9 insect cells incubated for 1 hr by TR-FRET assay
[7] = molecular target: Tyrosine-protein kinase Yes (Homo sapiens, UniProt P07947); test: Binding affinity to recombinant full-length N-terminal His-FLAG-GST-tagged YES1 (unknown origin) expressed in baculovirus infected Sf9 insect cells incubated for 1 hr by TR-FRET assay
[8] = molecular target: Tyrosine-protein kinase receptor UFO (Homo sapiens, UniProt P30530); test: Binding affinity to recombinant full-length N-terminal His-FLAG-GST-tagged AXL (unknown origin) expressed in baculovirus infected Sf9 insect cells incubated for 1 hr by TR-FRET assay
Tyrosine-protein kinase receptor UFO, sequence (P30530 whole entry, canonical isoform): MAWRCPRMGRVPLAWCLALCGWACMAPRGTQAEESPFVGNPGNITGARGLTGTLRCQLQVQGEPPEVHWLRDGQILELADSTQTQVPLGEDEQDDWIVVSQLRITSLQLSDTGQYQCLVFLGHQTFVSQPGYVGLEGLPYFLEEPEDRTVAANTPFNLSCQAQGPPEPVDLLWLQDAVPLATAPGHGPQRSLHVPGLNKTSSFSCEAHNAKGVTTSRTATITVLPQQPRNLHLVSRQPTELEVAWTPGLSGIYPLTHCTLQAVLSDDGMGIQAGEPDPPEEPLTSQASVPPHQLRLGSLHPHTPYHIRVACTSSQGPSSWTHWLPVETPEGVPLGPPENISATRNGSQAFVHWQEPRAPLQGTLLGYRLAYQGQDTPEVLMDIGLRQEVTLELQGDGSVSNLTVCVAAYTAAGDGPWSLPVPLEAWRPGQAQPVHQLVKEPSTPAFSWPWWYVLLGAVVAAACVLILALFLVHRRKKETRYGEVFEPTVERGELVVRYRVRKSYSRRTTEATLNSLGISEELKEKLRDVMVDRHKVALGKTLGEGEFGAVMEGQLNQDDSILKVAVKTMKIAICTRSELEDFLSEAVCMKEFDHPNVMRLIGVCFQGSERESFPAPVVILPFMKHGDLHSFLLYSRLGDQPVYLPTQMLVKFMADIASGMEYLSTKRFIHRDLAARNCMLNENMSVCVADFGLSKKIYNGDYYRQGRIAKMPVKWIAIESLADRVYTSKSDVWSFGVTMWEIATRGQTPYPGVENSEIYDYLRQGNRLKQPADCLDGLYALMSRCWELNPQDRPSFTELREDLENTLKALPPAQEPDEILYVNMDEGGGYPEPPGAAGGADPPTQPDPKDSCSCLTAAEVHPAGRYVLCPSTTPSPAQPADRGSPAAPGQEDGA

[9] = molecular target: Phosphorylase b kinase gamma catalytic chain, skeletal muscle/heart isoform (Homo sapiens, UniProt Q16816); test: Binding affinity to recombinant full-length N-terminal His-FLAG-GST-tagged PHKG1 (unknown origin) expressed in baculovirus infected Sf9 insect cells incubated for 1 hr by TR-FRET assay
[10] = molecular target: Protein kinase C zeta type (Homo sapiens, UniProt Q05513); test: Binding affinity to recombinant full-length N-terminal His-FLAG-GST-tagged PRKCZ (unknown origin) expressed in baculovirus infected Sf9 insect cells incubated for 1 hr by TR-FRET assay
[11] = molecular target: Phosphorylase b kinase gamma catalytic chain, liver/testis isoform (Homo sapiens, UniProt P15735); test: Binding affinity to recombinant full-length N-terminal His-FLAG-GST-tagged PHKG2 (unknown origin) expressed in baculovirus infected Sf9 insect cells incubated for 1 hr by TR-FRET assay
Phosphorylase b kinase gamma catalytic chain, liver/testis isoform, sequence (P15735 whole entry, canonical isoform): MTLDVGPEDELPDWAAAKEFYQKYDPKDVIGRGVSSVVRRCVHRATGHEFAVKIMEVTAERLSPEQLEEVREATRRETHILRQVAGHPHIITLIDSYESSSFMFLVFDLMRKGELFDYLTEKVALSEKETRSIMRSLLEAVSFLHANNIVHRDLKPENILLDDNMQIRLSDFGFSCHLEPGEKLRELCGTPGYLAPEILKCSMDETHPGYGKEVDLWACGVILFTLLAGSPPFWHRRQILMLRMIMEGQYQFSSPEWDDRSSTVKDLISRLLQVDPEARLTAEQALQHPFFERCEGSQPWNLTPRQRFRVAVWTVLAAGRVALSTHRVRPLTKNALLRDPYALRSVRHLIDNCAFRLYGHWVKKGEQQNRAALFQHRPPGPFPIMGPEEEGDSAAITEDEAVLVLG

[12] = molecular target: Tyrosine-protein kinase Blk (Homo sapiens, UniProt P51451); test: Binding affinity to recombinant human full length N-terminal GST-tagged BLK expressed in baculovirus expression system using srctide as substrate incubated for 1 hr by TR-FRET assay
[13] = molecular target: Tyrosine-protein kinase Fer (Homo sapiens, UniProt P16591); test: Binding affinity to recombinant full-length N-terminal His-FLAG-GST-tagged FER (unknown origin) expressed in baculovirus infected Sf9 insect cells incubated for 1 hr by TR-FRET assay
Angiopoietin-1 receptor = Angiopoietin-1 receptor (Homo sapiens, UniProt Q02763); test: Binding affinity to recombinant full-length N-terminal His-FLAG-GST-tagged TEK (unknown origin) (771 to 1124 residues) expressed in baculovirus infected Sf9 insect cells incubated for 1 hr by TR-FRET assay
Angiopoietin-1 receptor, sequence (Q02763 whole entry, the tested form may be a part): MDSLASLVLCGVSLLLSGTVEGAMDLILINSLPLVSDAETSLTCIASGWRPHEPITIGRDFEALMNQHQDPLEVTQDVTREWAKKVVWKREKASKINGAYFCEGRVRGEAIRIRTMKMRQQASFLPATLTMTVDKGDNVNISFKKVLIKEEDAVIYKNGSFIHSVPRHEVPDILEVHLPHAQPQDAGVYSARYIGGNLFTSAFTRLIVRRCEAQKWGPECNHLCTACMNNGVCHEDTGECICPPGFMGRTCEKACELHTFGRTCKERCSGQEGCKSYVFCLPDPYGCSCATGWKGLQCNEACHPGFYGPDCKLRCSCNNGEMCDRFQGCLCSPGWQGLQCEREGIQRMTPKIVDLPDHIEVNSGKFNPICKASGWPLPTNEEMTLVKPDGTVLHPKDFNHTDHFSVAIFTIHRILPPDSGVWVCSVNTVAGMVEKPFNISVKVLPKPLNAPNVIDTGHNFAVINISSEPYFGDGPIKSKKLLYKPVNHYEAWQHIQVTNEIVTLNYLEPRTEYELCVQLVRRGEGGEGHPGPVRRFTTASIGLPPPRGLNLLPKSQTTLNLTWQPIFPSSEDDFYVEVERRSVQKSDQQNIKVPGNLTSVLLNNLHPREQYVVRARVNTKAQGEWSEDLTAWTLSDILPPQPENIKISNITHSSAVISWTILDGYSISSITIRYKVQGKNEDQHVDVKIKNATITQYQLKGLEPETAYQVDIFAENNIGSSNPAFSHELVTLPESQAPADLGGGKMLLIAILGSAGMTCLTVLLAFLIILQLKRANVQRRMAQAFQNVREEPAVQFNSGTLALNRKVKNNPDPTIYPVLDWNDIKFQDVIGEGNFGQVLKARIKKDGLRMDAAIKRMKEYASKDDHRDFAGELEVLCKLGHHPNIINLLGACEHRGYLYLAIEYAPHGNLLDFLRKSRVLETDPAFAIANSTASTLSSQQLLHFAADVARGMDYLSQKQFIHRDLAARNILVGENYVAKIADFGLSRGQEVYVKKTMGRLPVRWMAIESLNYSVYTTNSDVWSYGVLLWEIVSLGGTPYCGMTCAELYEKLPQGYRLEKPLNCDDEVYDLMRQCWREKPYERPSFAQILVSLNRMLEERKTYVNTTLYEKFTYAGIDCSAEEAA

[14] = molecular target: Dual specificity mitogen-activated protein kinase kinase 1 (Homo sapiens, UniProt Q02750); test: Binding affinity to recombinant full-length N-terminal His-FLAG-tagged MAP2K1 (unknown origin) expressed in baculovirus infected Sf9 insect cells incubated for 1 hr by TR-FRET assay
[15] = molecular target: cAMP-dependent protein kinase catalytic subunit alpha (Homo sapiens, UniProt P17612); test: Binding affinity to recombinant human full length N-terminal GST-tagged PRKACA expressed in baculovirus expression system using kemptide as substrate incubated for 1 hr by TR-FRET assay
Activated CDC42 kinase 1 = Activated CDC42 kinase 1 (Homo sapiens, UniProt Q07912); test: Binding affinity to recombinant N-terminal His-FLAG-GST-tagged TNK2 (unknown origin) (110 to 476 residues) expressed in baculovirus infected Sf9 insect cells incubated for 1 hr by TR-FRET assay
Activated CDC42 kinase 1, sequence (Q07912 whole entry, the tested form may be a part): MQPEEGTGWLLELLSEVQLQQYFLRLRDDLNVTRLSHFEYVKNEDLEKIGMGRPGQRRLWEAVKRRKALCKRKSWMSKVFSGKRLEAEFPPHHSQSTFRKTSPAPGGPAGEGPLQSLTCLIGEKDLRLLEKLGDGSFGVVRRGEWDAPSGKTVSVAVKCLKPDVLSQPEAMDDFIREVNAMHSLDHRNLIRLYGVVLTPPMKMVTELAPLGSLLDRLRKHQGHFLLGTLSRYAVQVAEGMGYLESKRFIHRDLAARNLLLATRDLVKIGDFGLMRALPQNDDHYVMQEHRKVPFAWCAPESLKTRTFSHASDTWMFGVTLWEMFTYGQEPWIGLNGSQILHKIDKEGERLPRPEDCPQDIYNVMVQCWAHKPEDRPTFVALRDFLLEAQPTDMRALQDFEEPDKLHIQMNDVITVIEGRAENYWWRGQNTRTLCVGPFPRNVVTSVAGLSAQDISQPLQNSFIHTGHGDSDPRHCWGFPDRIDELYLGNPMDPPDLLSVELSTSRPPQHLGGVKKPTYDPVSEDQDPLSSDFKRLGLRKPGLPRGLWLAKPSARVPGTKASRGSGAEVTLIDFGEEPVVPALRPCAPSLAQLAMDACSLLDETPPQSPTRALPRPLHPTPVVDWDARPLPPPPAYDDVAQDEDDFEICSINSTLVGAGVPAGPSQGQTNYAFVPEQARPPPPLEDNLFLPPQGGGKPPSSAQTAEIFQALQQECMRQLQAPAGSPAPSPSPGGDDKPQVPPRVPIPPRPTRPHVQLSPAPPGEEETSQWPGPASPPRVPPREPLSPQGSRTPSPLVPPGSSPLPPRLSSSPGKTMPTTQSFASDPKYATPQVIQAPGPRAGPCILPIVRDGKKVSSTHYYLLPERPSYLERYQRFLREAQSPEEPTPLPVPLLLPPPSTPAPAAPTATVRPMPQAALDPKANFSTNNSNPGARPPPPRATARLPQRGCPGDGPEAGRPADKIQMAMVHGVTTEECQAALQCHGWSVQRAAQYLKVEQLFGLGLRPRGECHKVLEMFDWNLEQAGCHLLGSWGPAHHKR

[16] = molecular target: Serine/threonine-protein kinase N2 (Homo sapiens, UniProt Q16513); test: Binding affinity to recombinant full-length N-terminal His-FLAG-GST-tagged PKN2 (unknown origin) expressed in baculovirus infected Sf9 insect cells incubated for 1 hr by TR-FRET assay
[17] = molecular target: Homeodomain-interacting protein kinase 4 (Homo sapiens, UniProt Q8NE63); test: Binding affinity to recombinant full-length N-terminal His-FLAG-tagged HIPK4 (unknown origin) expressed in baculovirus infected Sf9 insect cells incubated for 1 hr by TR-FRET assay
[18] = molecular target: Dual specificity tyrosine-phosphorylation-regulated kinase 1A (Homo sapiens, UniProt Q13627); test: Binding affinity to recombinant full-length N-terminal His-FLAG-GST-tagged DYRK1A (unknown origin) expressed in baculovirus infected Sf9 insect cells incubated for 1 hr by TR-FRET assay
[19] = molecular target: AMP-activated protein kinase (AMPK) alpha-1/beta-1/gamma-1 (Homo sapiens, UniProt P54619+Q13131+Q9Y478); test: Binding affinity to recombinant human full-length GST N-Terminal tagged-AMPK alpha1/N-Terminal GST tagged-AMPK beta1/N-Terminal his-tagged AMPK gamma1 expressed in baculovirus expression system incubated for 1 hr by TR-FRET assay
[20] = molecular target: Rho-associated protein kinase 1 (Homo sapiens, UniProt Q13464); test: Binding affinity to recombinant full-length N-terminal His-FLAG-GST-tagged ROCK1 (unknown origin) (1 to 477 residues) expressed in baculovirus infected Sf9 insect cells incubated for 1 hr by TR-FRET assay
[21] = molecular target: Tyrosine-protein kinase Tec (Homo sapiens, UniProt P42680); test: Binding affinity to recombinant human N-terminal GST-tagged TEC (359 to 631 residues) expressed in baculovirus expression system using Srctide as substrate incubated for 1 hr by TR-FRET assay

Protein kinase C theta type, sequence (Q04759 whole entry, the tested form may be a part): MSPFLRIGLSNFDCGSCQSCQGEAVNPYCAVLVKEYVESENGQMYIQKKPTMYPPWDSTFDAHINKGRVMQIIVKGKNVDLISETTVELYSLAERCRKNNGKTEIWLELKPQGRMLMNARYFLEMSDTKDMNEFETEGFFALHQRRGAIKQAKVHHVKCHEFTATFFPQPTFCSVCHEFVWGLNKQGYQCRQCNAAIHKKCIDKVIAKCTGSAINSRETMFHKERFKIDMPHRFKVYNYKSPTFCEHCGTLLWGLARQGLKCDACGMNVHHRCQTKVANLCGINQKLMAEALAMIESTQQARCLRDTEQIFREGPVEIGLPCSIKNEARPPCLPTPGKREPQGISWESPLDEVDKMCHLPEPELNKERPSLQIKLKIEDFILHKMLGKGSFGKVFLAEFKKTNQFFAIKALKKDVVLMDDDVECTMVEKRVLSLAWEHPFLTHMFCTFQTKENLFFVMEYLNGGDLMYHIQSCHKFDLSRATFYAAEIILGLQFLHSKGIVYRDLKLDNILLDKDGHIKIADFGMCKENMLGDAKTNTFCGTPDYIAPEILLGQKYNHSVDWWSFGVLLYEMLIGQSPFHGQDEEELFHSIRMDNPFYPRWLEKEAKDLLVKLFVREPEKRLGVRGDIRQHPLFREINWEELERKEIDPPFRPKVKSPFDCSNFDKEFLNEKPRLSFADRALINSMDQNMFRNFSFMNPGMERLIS

CO[C@@H]1[C@H](N(C)CCOCCOCCOCCNC(=O)CCC2=[N+]3C(=Cc4c(C)cc(C)n4[B-]3(F)F)C=C2)C[C@H]2O[C@]1(C)n1c3ccccc3c3c4c(c5c6ccccc6n2c5c31)C(=O)NC4
Kd [1]: 19 nM | Kd [2]: 888 nM | Kd [3]: 3 nM | Kd [4]: 1010 nM | Kd (Ephrin type-A receptor 7): 887 nM | Kd [5]: 14 nM | Kd [6]: 1020 nM | Kd [7]: > 2000 nM | Kd [8]: 559 nM | Kd [9]: 3 nM | Kd [10]: 1350 nM | Kd [11]: 72 nM | Kd [12]: 45 nM | Kd [13]: 30 nM | Kd (Angiopoietin-1 receptor): 408 nM | Kd [14]: 428 nM | Kd [15]: 42 nM | Kd (Activated CDC42 kinase 1): 42 nM | Kd [16]: 4 nM | Kd [17]: 472 nM | Kd [18]: 102 nM | Kd [19]: 15 nM | Kd [20]: 26 nM | Kd [21]: 1460 nM

CO[C@@H]1[C@H](NCCOCCOCCOCCNC(=O)CCC2=[N+]3C(=Cc4c(C)cc(C)n4[B-]3(F)F)C=C2)C[C@H]2O[C@]1(C)n1c3ccccc3c3c4c(c5c6ccccc6n2c5c31)C(=O)NC4
Kd [1]: 28 nM | Kd [2]: 674 nM | Kd [3]: 3 nM | Kd [4]: 879 nM | Kd (Ephrin type-A receptor 7): 766 nM | Kd [5]: 16 nM | Kd [6]: 948 nM | Kd [7]: 601 nM | Kd [8]: 313 nM | Kd [9]: 1 nM | Kd [10]: 1250 nM | Kd [11]: 71 nM | Kd [12]: 63 nM | Kd [13]: 27 nM | Kd (Angiopoietin-1 receptor): 395 nM | Kd [14]: 328 nM | Kd [15]: 116 nM | Kd (Activated CDC42 kinase 1): 36 nM | Kd [16]: 6 nM | Kd [17]: 424 nM | Kd [18]: 138 nM | Kd [19]: 13 nM | Kd [20]: 35 nM | Kd [21]: 1060 nM
